The structures appear in SMILES notation.

Usually melting point stands for the temperature, or range, at which the solid turns liquid. On to `CCOC(=O)C1=NN(c2ccc(Cl)cc2Cl)C(C)(C(=O)OCC)C1` (stereo not given), for which the log10 vapour pressure (mmHg) was -7.33 and the melting point came to 51 °C.

Turning to `C=CCC1(C(C)CC)C(=O)NC(=O)NC1=O` (stereo not given), the melting point was found to be 109 °C.

A word on the boiling point: it is the temperature at which the vapour pressure of the liquid equals the pressure above it. On to `CCc1cccc2ccccc12`, for which the boiling point is 259 °C, the log10 Henry constant (atm·m³/mol) is -3.16, the log10 Koc (L/kg) is 3.78 and the log10 vapour pressure (mmHg) was -1.6. The same molecule registered a melting point of -13.9 °C.

On to `O=[N+]([O-])c1cc(Cl)ccc1Cl`, for which the boiling point came out at 267 °C, the log10 Henry constant (atm·m³/mol) is -4.92, the melting point worked out at 56 °C and the ready biodegradability entry is on record as “not readily biodegradable”.

Take `O=C(O)C1CCCCC1`: the boiling point amounted to 232 °C and the melting point amounted to 31.5 °C.

For the molecule `Nc1ccc2c(c1)Cc1cc(N)ccc1-2`, the melting point is 166 °C.

Take `CCOC(=O)NC`: the boiling point was 170 °C and the log10 vapour pressure (mmHg) is -0.0435.

For `CN(C)c1ccc(C(O)(c2ccccc2)c2ccc(N(C)C)cc2)cc1`, the melting point was determined as 113 °C.

As to `CC(C)CNC(=O)N1CCNC1=O`, the melting point was 95.5 °C.

As to `ON=Cc1ccncc1`, the melting point turned out to be 132 °C.

Molecule `CCC(Cl)[N+](=O)[O-]` (stereo not given) gave a boiling point of 142 °C.

In turn, `CC(C)CC(C)(C)C(C)C` came in with a boiling point of 153 °C.

For the molecule `CCCCCCCCCC`, the boiling point turned out to be 174 °C, the log10 biodegradation half-life (days) worked out at 0.954, the log10 vapour pressure (mmHg) was determined as 0.155 and the melting point was -29.7 °C. The ready biodegradability result is on record as “readily biodegradable”.

As for `CC(C)(C)c1cc(C(=O)O)c(O)c(C(C)(C)C)c1`, the ready biodegradability entry is listed as “not readily biodegradable”.

`c1ccc(CNCCNCc2ccccc2)cc1`: the melting point is 26 °C.

On to `O=C(O)COc1ccc(Cl)cc1Cl`, for which the log10 Koc (L/kg) worked out at 1.66, the log10 vapour pressure (mmHg) was -4.08, the melting point was 140 °C and the ready biodegradability entry is listed as “not readily biodegradable”.

As to `FC1CCCCC1`, the boiling point is 101 °C and the melting point was determined as 13 °C.

`CC(C)(C)OC(=O)CC(=O)OC(C)(C)C` gave a melting point of -6 °C.

With `COc1ccnc2ccccc12`, the boiling point was 245 °C and the melting point was 41 °C.

For `CCC1CCC1`, the boiling point was 70.8 °C and the melting point was -143 °C.

Take `CC(=O)[C@H]1CC[C@H]2[C@@H]3CC[C@H]4C[C@H](N)CC[C@]4(C)[C@H]3CC[C@]12C`: the melting point was 126 °C.

Molecule `COC(CBr)OC` came in with a boiling point of 149 °C.

In the case of `COC(=O)CCC(C)=O`, the boiling point amounted to 196 °C.

Consider `C=CCCCCCCCCCCC=C`, for which the log10 biodegradation half-life (days) worked out at 1.11.

`CCCCCCCCCCCCCCCCCC(=O)OC(=O)CCCCCCCCCCCCCCCCC`: the melting point was 72 °C.

`ClCCOCCCl` yielded a boiling point of 178 °C, a log10 Koc (L/kg) of 1.88, a log10 vapour pressure (mmHg) of 0.19 and a melting point of -51.9 °C. The ready biodegradability entry is given as “not readily biodegradable”.

`O=C1c2ccccc2CCc2ccccc21` registered a melting point of 30 °C.

Consider `Fc1ccc(NC(=S)Nc2cc(Cl)cc(Cl)c2)cc1`, for which the melting point was determined as 164 °C.

As to `ClC1=C(Cl)C2(Cl)C3CCC4C(CCC3C1(Cl)C2(Cl)Cl)C1(Cl)C(Cl)=C(Cl)C4(Cl)C1(Cl)Cl` (stereo not given), the ready biodegradability entry is on record as “not readily biodegradable”.

`OCC1CCC(CO)CC1` (stereo not given): the boiling point is 285 °C, the log10 vapour pressure (mmHg) is -3.51 and the melting point came out at 51 °C.

`CCCCCCCCCCCCCCCCCCCC(=O)OCC`: the log10 vapour pressure (mmHg) is -7.72 and the melting point was found to be 50 °C.

As for `COc1cc(OC)nc(N=C(O)NS(=O)(=O)N(C)S(C)(=O)=O)n1`, the log10 vapour pressure (mmHg) is -6.78 and the melting point was 162 °C.

With `O=C1CN(/N=C/c2ccc([N+](=O)[O-])o2)C(=O)N1CN1CCOCC1`, the melting point amounted to 206 °C.

`CCC(C)=NO`: the boiling point worked out at 152 °C, the melting point is -29.5 °C and the ready biodegradability result was “not readily biodegradable”.

Molecule `C=C=C(C)CC` returned a boiling point of 70 °C.

Turning to `C/C=C\C(=O)OC1C[C@H]2O[C@@H]3C=C(C)C(=O)C[C@]3(C)[C@]1(C)C21CO1` (stereo not given in full), the melting point was determined as 118 °C.

The molecule `CCC(=O)Cc1ccccc1` returned a boiling point of 230 °C.

In the case of `CC1Cc2ccccc2N1NC(=O)c1ccc(Cl)c(S(N)(=O)=O)c1` (stereo not given), the melting point came out at 161 °C.

For `CCc1sccc1C`, the boiling point stood at 161 °C.

With `CC(C)=CCC[C@@H](C)CC=O`, the boiling point worked out at 207 °C.

Turning to `CC1(C)CC(N)CC(C)(C)N1`, the boiling point is 188 °C and the melting point came to 17 °C.

`Oc1c(F)c(F)cc(F)c1F` came in with a boiling point of 140 °C and a melting point of 38 °C.

For the molecule `CCC(=O)c1ccc2c(c1)N(CCCN(C)C)c1ccccc1S2`, the melting point was determined as 69.5 °C.

`CCCCCCCCCCCCCCCCCCCCCCCCCCCC` returned a boiling point of 432 °C, a log10 biodegradation half-life (days) of 2.1, a log10 vapour pressure (mmHg) of -8.8 and a melting point of 64.5 °C. For the same molecule, the ready biodegradability entry is reported as “readily biodegradable”.

As to `C[N+]1(CCC(C(N)=O)(c2ccccc2)c2ccccc2)CCCCC1.[Br-]`, the melting point came out at 178 °C.

For the molecule `CC(Br)CCl` (stereo not given), the boiling point turned out to be 118 °C.

For the molecule `CCCCCI`, the boiling point stood at 155 °C, the log10 Henry constant (atm·m³/mol) is -1.71, the log10 vapour pressure (mmHg) was 0.642 and the melting point was -85.6 °C.

In turn, `CC1(C)C=CC=C(C(=O)O)C=C1` displayed a melting point of 88.5 °C.

Consider `NC[C@H](O)[C@@H](O)[C@@H](O)[C@H](O)CO`, for which the melting point is 127 °C.

`CCCCN(CC)C(=O)SCCC` returned a boiling point of 202 °C, a log10 Koc (L/kg) of 2.8, a log10 vapour pressure (mmHg) of -1.05 and a melting point of -22 °C. The ready biodegradability entry was “readily biodegradable”.

Molecule `C=CCNC` gave a boiling point of 65 °C.

Regarding `CNC1CCCCC1`, the boiling point was determined as 147 °C.

In turn, `c1ccc2c(c1)c(Cc1cn(CN3CCCCC3)c3ccccc13)cn2CN1CCCCC1` displayed a melting point of 138 °C.

As to `CCCC[Si]1(C)O[Si](C)(CCCC)O[Si](C)(CCCC)O[Si](C)(CCCC)O1` (stereo not given), the boiling point stood at 291 °C.

As to `NC(=O)OCc1ccccc1`, the melting point was found to be 88 °C.

In turn, `C#CC(C)(C)Cl` returned a boiling point of 76 °C and a melting point of -61 °C.

The record behind these values is the OPERA property sets (Mansouri et al. 2018).
